Data taken from patent publication US20190142835A1, “INHIBITION OF AUTOPHAGY USING PHOSPHOLIPASE A2 INHIBITORS” (OREGON HEALTH & SCIENCE UNIVERSITY, priority 2017, published 2019).

Columns and labels:
[1] = tested on: PI3K, mTORC1 and mTORC2 signaling; assay: Western blotting of PI3K-AKT-mTOR signaling; type: cell-based, human; details: added to CYT387
Experimental: Cells were plated in 6 well dishes and treated the following day with the indicated agents. Treatments were for 24 hours, after which cells were washed with ice cold PBS and lysed with RIPA buffer (Sigma). Phosphatase inhibitor cocktail set II and protease inhibitor cocktail set III (EMD Millipore) were added at the time of lysis. Lysates were centrifuged at 15,000 g×10 min at 4 degrees C. Protein concentrations were calculated based on a BCA assay (Thermo Scientific) generated standard curve. Proteins were resolved using the NuPAGE Novex Mini Gel system on 4% to 12% Bis-Tris Gels (Invitrogen). For western blotting, equal amounts of cell lysates (15-20 μg of protein) were resolved with SDSPAGE, and transferred to membranes. The membrane was probed with primary antibodies, washed, and then incubated with corresponding fluorescent secondary antibodies and washed. The fluorescent signal was captured using LI-COR (Lincoln, Nebr.) Odyssey Imaging System, and fluorescent intensity was quantified using the Odyssey software where indicated. The following antibodies were used for Western blots: p-S6 (S240/244), S6, LC3B, p-Akt(S473), p-Akt(T308), Akt, cleaved caspase3 (Cell Signaling Technologies). p-Stat3 (Y705), Stat3 and β-actin (AC15) (Abcam). Ki67 (Dako) and cleaved caspase3 (Cell Signaling Technologies) were used for immunohistochemistry. […] BX795 and GDC0941 were purchased from Sigma.

[2] = tested on: ACHN cells; assay: Cell viability (CellTiter-Glo), ACHN; type: cell-based, human; details: ACHN, 3 days
Experimental: (§1) Cell viability assays were performed by plating 2000 cells/well in 96-well plates in triplicate and treating the following day with the indicated agent. The experiment was continued for 3 days and then cell viability was determined using CellTiter-Glo assay kit (Promega).
The assay was measured using a luminometer. […] Experimental results are the average of at least three independent experiments.

[3] = tested on: SN12C cells; assay: Cell viability (CellTiter-Glo), SN12C; type: cell-based, human; details: 3 days
Experimental: as §1, with “(Promega). The assay was measured using a luminometer. […] Experimental results are the average of at least three independent experiments.” for “(Promega).”

[4] = tested on: ACHN cells; assay: Apoptosis (Caspase 3/7-Glo), ACHN; type: cell-based, human; details: ACHN, 72 h
Experimental: (§2) Apoptosis was determined using Caspase 3/7-Glo assay kit (Promega) following the manufacturer's instructions. Briefly, 2000 cells per well were plated in 96 well plates and cultured for 72 h. […] Caspase 3/7 activity was measured using a luminometer. Luminescence values were normalized by cell numbers.

[5] = tested on: SN12C cells; assay: Apoptosis (Caspase 3/7-Glo), SN12C; type: cell-based, human; details: 72 h
Experimental: as §2

[6] = tested on: ACHN xenografts; assay: ACHN xenograft study; type: in vivo
Experimental: (§3) 6-week old mice were utilized for human renal cell carcinoma xenografts. For both ACHN and SN12C cell lines 2×10^6 cells were diluted in 50 μl of PBS and 50 μl of Matrigel (BD Biosciences) and were injected subcutaneously into the right and left flank of each mouse. Tumors were monitored until they reached an average size of 50-80 mm3 (approximately 2 weeks), at which point treatments were begun. […] MK2206 (60 mg/kg/day) were administered by oral gavage 2-3 day/week. […] Tumors and mouse weights were measured twice weekly. At least 6-8 mice per treatment group were included. All mice were euthanized using CO2 inhalation followed by cervical dislocation per institutional guidelines at Oregon Health and Science University. Experiments were approved by the Institutional Animal Care and Use Committee at OHSU.
(§4) Immunostaining was performed following deparaffinization and rehydration of slides. Antigen retrieval was performed in a pressure cooker using citrate buffer (pH 6.0) for 4 min. Nonspecific binding was blocked using Vector mouse IgG blocking serum 30 min at room temperature. Samples were incubated at room temperature with rabbit monoclonal antibodies pS6 (CST #5364) cleaved caspase 3 (CST#9661), and Ki67 (Dako#M7240).
(§5) Slides were developed with Vector Immpress rabbit IgG (#MP7401) and Vector Immpress mouse IgG (#MP7400) for 30 min at room temperature. Chromogenic detection was performed using Vector Immpact DAB (#SK4105) for 3 min. Slides were counterstained with hematoxylin. A 3DHistech MIDI Scanner (Perkin Elmer) was used to capture whole slide digital images with a 20× objective. Images were converted to into MRXS files and computer graphic analysis was completed using inForm 1.4.0 Advanced Image Analysis Software (Perkin Elmer).
Mouse tumor size was analyzed by 2-way ANOVA with time and drug as factors, using GraphPad Prism. Mouse weight during treatment was analyzed by repeated measures 2-way ANOVA, with time and drug as factors. A P value less than 0.05 was considered statistically significant. Immunohistochemistry: P-values were calculated using one-way ANOVA, with Bonferroni's multiple comparison test. * denotes P<0.05, ** denotes P<0.01, and *** denotes P<0.001 throughout this disclosure. Metabolite fold-changes were computed and visualized in Python script, using the openpyxl package (for importing Excel files) and the matplotlib package (for visualizing fold changes).

[7] = tested on: SN12C xenografts; assay: SN12C xenograft study; type: in vivo; details: SN12C; CYT387 50 mg/kg/day or MK2206 60 mg/kg/day oral gavage
Experimental: as §3, §4
as §5, with “Images were converted to into MRXS files and computer graphic analysis was completed using inForm 1.4.0 Advanced Image Analysis Software (Perkin Elmer).” left out
Mouse tumor size was analyzed by 2-way ANOVA with time and drug as factors, using GraphPad Prism. Mouse weight during treatment was analyzed by repeated measures 2-way ANOVA, with time and drug as factors. […] Immunohistochemistry: P-values were calculated using one-way ANOVA, with Bonferroni's multiple comparison test. * denotes P<0.05, ** denotes P<0.01, and *** denotes P<0.001 throughout this disclosure. […]

[8] = tested on: glycolysis; assay: Glucose uptake and lactate excretion as readouts for glycolysis; type: cell-based, human
Excerpt: The PI3K-AKT-mTOR pathway regulates multiple steps in glucose uptake and metabolism.

[9] = tested on: ACHN cells; assay: Cellular respiration (XF96 Seahorse, ECAR and OCR); type: cell-based, human; details: XF-96 Extracellular Flux Analyzer
Experimental: Oxygen consumption and extracellular acidification rates were carried out in a XF96 Seahorse Analyzer (Seahorse Bioscience, Billerica, Mass., USA). Cells were plated in the wells of 96-well plates (8×10^3 cells/well; XF96 plates, Seahorse Bioscience, North Billerica, Mass.) and incubated at 37° C. overnight. The next day, cells were treated with indicated drugs for 24 hours and then the medium was changed to XF Assay Medium and loaded with glucose, oligomycin, and 2-DG, respectively, as manufacture's recommendation.

[10] = tested on: ACHN cells; assay: Redox homeostasis (p-AMPK, NADPH, GSSG/GSH, ROS); type: cell-based, human; details: 2 μM CYT387, 10 μM MK2206, 24 hr
Experimental: ROS levels were measured with Cellrox Deep Red (Molecular Probes). Cell were plated in a 96 well clear bottom with black sides cell culture plate. […] The complete media+drug was removed after 24 hours and replaced with 5 μM of Cellrox Deep Red in media. Cells were incubated for 30 min at 370 C then washed with PBS. Fluorescence signal was detected using a Bioteck Cytation 5 plate reader. Data was analyzed using Prism software.

[11] = tested on: ACHN cells; assay: Lipid droplet staining (Bodipy 493/503), ACHN; type: cell-based, human; details: 24 hrs; p<0.001 vs control
Experimental: (§6) Cells were grown on coverslips then treated with drug for 24 hours. Cells were fixed in 4% paraformaldehyde for 15 min, rinsed with PBS. Cells were washed with a 1% saponin solution for 15 min at room temperature then washed several times in PBS to remove detergent. Cells were then incubated in Bodipy (ThermoFisher #D3922) at a final concentration of 1 uM for 10 min. Bodipy was removed and slides were rinsed with PBS then air dried and mounted on slides using Dako mounting media with Dapi.

[12] = tested on: Atg5+/+ murine embryonic fibroblasts; assay: Lipid droplet number in Atg5+/+ MEFs; type: cell-based, mouse; details: 24 hr
Experimental: as §6

[13] = tested on: Atg5−/− murine embryonic fibroblasts; assay: Lipid droplet number in Atg5−/− MEFs; type: cell-based, mouse; details: ATG5 deficient, 24 hr
Experimental: as §6

For `NC1(c2ccc(-c3nc4ccn5c(=O)[nH]nc5c4cc3-c3ccccc3)cc2)CCC1` [MK2206], the “effect on mTORC1 activity in cells treated with CYT387” value [1] was “additive inhibitory effect on mTORC1 activity”, the “proliferation (cell viability)” value [2] was “some anti-proliferative effects” and the “proliferation (cell viability)” value [3] was “some anti-proliferative effects”. The “apoptosis (cleaved-caspase 3/7)” value [4] was “little or no effect on apoptosis”, the “apoptosis (cleaved-caspase 3/7)” value [5] was “little or no effect on apoptosis” and the “antitumor effect of single agent” value ([6]; ACHN, CYT387 50 mg/kg/day or MK2206 60 mg/kg/day oral gavage) was “exhibited antitumor effect”. For the same molecule, the “number of adipophilin-positive LDs in tumors” value ([6]; treatment day 40, ACHN xenograft tumors, CYT387<MK2206<CYT387+MK2206, p=0.0046) was “significantly and incrementally increased”, the “antitumor effect of single agent” value [7] was “exhibited antitumor effect” and the “lactate/glucose ratio in extracellular media” value ([8]; Control: 1.51) was 0.81. For the same molecule, the glucose uptake ([8]; in vitro, 18FDG) was “significantly decreased glucose uptake”, the lactate production ([8]; in vitro, culture media) was “reduced lactate production” and the ECAR [9] was “significantly reduced the ECAR”. For the same molecule, the GSSG/GSH ratios [10] was “maintains GSSG/GSH ratios”, the NADPH levels [10] was “increases NADPH levels” and the ROS [10] was “mitigates ROS”. For the same molecule, the p-AMPK [10] was “activates p-AMPK”, the “number of lipid droplets” value [11] was “increase in the number of lipid droplets” and the “size of lipid droplets” value [11] was “increase in the size of lipid droplets”. For the same molecule, the LD numbers [12] was “significantly increase LD numbers” and the lipid droplets [13] was “no increase in lipid droplets”.
